Results: patent publication US20210052633A1, “HYALURONIC ACID SYNTHESIS PROMOTER, METHOD FOR PROMOTING HYALURONIC ACID SYNTHESIS, AND CELL EVALUATION METHOD” (SEIKAGAKU CORPORATION, priority 2018, published 2021)

Assays:
[1] = test system: Human synovial cells derived from a patient with rheumatism (HFLS-RA); experiment: Hyaluronidase treatment of culture supernatant, then fractionation and radioactivity measurement; type: cell-based; details: Example 2, 0.01% (w/v)
Method: It was verified that the substance whose synthesis was promoted by the action of the compound 1 is hyaluronic acid by confirming the presence or absence of degradation by a hyaluronic acid-degrading enzyme (hyaluronidase).
The same procedure as in Example 1 was performed.
The culture supernatant (90 μL) collected after adding the 0.01% HA solution and 10 μL of 100 TRU/mL hyaluronidase (or water for injection) were mixed and reacted overnight at 37° C., thereby performing a hyaluronidase treatment. The culture supernatant (90 μL) collected after adding the 0.01% compound 1 solution and 30 μL of 100 TRU/mL hyaluronidase (or water for injection) were mixed and reacted at 60° C. for 3 hours, thereby performing a hyaluronidase treatment. The hyaluronidase (derived from an actinomycetes) was purchased from Seikagaku Biobusiness Corporation.

[2] = test system: model rabbit with antigen-induced arthritis; experiment: Hyaluronic acid synthesis in the knee joint of a model rabbit with antigen-induced arthritis; type: in vivo, Japanese white rabbit
Description: A 0.5% (w/v %) compound 1 solution was obtained by mixing respective solutions of a 1% (w/v) compound 1 solution (phosphate buffer solution), a 10% (w/v) ovalbumin solution (phosphate buffer solution) and [^3H] glucosamine (phosphate buffer solution, 37 MBq/mL) at a ratio of 5:1:4 (v:v:v). In the preparation of a control solution, a phosphate buffer solution was used in place of the compound 1 solution. In the preparation of a sodium hyaluronate (HA) solution, ARTZ Dispo (registered trademark) (manufactured by Seikagaku Corporation) was used in place of the compound 1 solution. Further, a Normal solution not containing ovalbumin (an arthritis-inducing substance) was obtained by mixing respective solutions of a phosphate buffer solution and [^3H] glucosamine (phosphate buffer solution, 37 MBq/mL) at a ratio of 3:2 (v:v). As test substances, the following substances were used.
Ovalbumin (SIGMA) was dissolved and prepared with physiological saline (Otsuka Pharmaceutical Factory, Inc.) at 1% (w/v), and a water-in-oil emulsion was prepared with Freund's complete adjuvant (CAPPEL) at 1:1 (v:v). The emulsion was intradermally administered at a total dose of 1 mL to dozens of sites of the back of a Japanese white rabbit (male, 16 weeks of age, Oriental Yeast Industry Co., Ltd.) under general anesthesia (midazolam, xylazine, and butorphanol at 0.67 mg/kg, 5.3 mg/kg, and 0.67 mg/kg, i.v., respectively) to sensitize the rabbit. On day 12 after sensitization, the rabbit was additionally sensitized by administering the emulsion in the same manner. […]
Since glucosamine is a constituent monosaccharide of hyaluronic acid, in hyaluronic acid newly synthesized in the living body after administration of the test substance, [^3H] glucosamine is incorporated. […] Thereafter, the radioactivity (dpm, disintegrations per minute) of each fraction was measured using a scintillation counter, and the radioactivity (the amount of [^3H] glucosamine incorporated into newly synthesized hyaluronic acid) was evaluated. […]

HAS2 mRNA = experiment: Relative mRNA level (real-time PCR, ΔΔCt) in synovial cells; type: cell-based, human; details: HFLS-OA, 0.1% (w/v), 48 hours, vs control
Method: (§1) Compound 1 or sodium hyaluronate (HA) (ARTZ Dispo (registered trademark) (manufactured by Seikagaku Corporation)) was mixed in a solution containing a phosphate buffer solution and an α-MEM concentrated medium. Further, each reagent was added and mixed in the resulting solution so that the final concentrations were as follows: 10% (v/v) fetal bovine serum (hereinafter FBS), 10 ng/mL recombinant human IL-1β/IL-1F2 (hereinafter IL-1β), and 1% (w/v) penicillin/streptomycin. As a result, the following three solutions were prepared as test substances.
(§2) Human synovial cells derived from a patient with osteoarthritis (HFLS-OA, CELL APPLICATIONS, INC.) were subcultured and grown in a 175-cm^2 flask. In the cell culture, Basal medium (containing 10% (v/v) Growth supplement and 1% (w/v) penicillin/streptomycin) (manufactured by Cell Applications, Inc.) was used. Thereafter, the cells were seeded in a 6-well plate at 3.0×10^5 cells/2 mL/well and cultured for about 24 hours until confluence was reached. In the cell culture, α-MEM medium (containing 10% (v/v) FBS and 1% (w/v) penicillin/streptomycin) was used. […]
(§3) The cDNA sample was subjected to real-time PCR using Premix ExTaq (Perfect Real Time) (Takara Bio, Inc.), the Ct values of target genes (HAS1, HAS2, HAS3, HYAL1, HYAL2, and HYAL3) and GAPDH were measured, and relative mRNA levels were calculated by the ΔΔCt method.

HYAL2 mRNA = experiment: as above; type: cell-based, human; details: HFLS-OA, 0.1% (w/v), 48 hours, vs control
Method: as §1, §2, §3

[3] = 0.5% (w/v), 0.5 mL/joint, 48 hours

Aminoethanol-diclofenac-introduced sodium hyaluronate [compound 1]
peak of the high molecular weight radioactive substance after hyaluronidase treatment ([1]; hyaluronidase (+)): disappearance of the peak
production and molecular weight of high molecular weight radioactive substance ([1]; hyaluronidase (−)): higher molecular weight than the radioactive substance in the 0.01% HA (hyaluronidase (−)) group
molecular weight peak of hyaluronic acid synthesized in the knee joint ([2]; 0.5% (w/v) solution, 0.5 mL/joint into the knee joint cavity, joint fluid at 48 hours, normal rabbit peak higher than 2,300,000): ~2,300,000
amount of high molecular weight hyaluronic acid produced in the knee joint [2, 3]: prominent as compared with the sodium hyaluronate administration group
production amount of hyaluronic acid in the knee joint [2, 3]: more prominent in the compound 1 administration group even as compared with the normal group
expression of HAS2 mRNA (relative mRNA level) (HAS2 mRNA): significantly promotes
expression of HYAL2 mRNA (relative mRNA level) (HYAL2 mRNA): significantly suppresses
